In patent publication US20250368633A1, “AZEPINE FUSED RING COMPOUND AS RIPK1 INHIBITOR AND USE THEREOF” (ARTIVILA BIOPHARMA, priority 2022, published 2025) one finds EC50 data, which are given here for three molecules.

Each structure is given as a SMILES string. pEC50: −log10 of the molar value. A value given as a limit tells only on which side of the number the result lay.

In this assay the test system is U937 cells. Put plainly: EC50 of necroptosis inhibition in U937 cells (TSZ-induced, CellTiter-Glo). The format is cell-based. The following applies: Homo sapiens, U-937; TSZ (hTNF-α, SM-164, Z-VAD-FMK) 20 hours; 10 concentration points; read-out: EC50 intervals of necroptosis inhibition in U937 cells. The method, boiled down: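 Luminescent ATP readout (CellTiter-Glo) after 20 h gave viability of TSZ-challenged U937 cells; compounds were added 15 min ahead of TNF-α/SM-164/Z-VAD-FMK. EC50 derived by variable-slope nonlinear regression of inhibition relative to no-TSZ and TSZ-alone controls.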
On to `COC(=O)C1(C#Cc2ccc3c(c2)N(C)C(=O)[C@@H](NC(=O)C(=O)NCCc2ccccc2)CO3)CC1` [Example 96, methyl (S)-1-((5-methyl-4-oxo-3-(2-oxo-2-(phenethylamino)acetamido)-2,3,4,5-tetrahydrobenzo[b][1,4]oxazepin-7-yl)ethynyl)cyclopropane-1-carboxylate], for which the pEC50 is greater than 7.00. Then `CN1C(=O)[C@@H](NC(=O)C(=O)NCCc2cccs2)COc2ccccc21` [Example 97, (S)—N^1-(5-methyl-4-oxo-2,3,4,5-tetrahydrobenzo[b][1,4]oxazepin-3-yl)-N^2-(2-(thiophen-2-yl)ethyl)oxalamide], with 6.30 to 7.00; and `CN1C(=O)[C@@H](NC(=O)C(=O)NCCc2ccsc2)COc2ccccc21` [Example 98, (S)—N-(5-methyl-4-oxo-2,3,4,5-tetrahydrobenzo[b][1,4]oxazepin-3-yl)-N^2-(2-(thiophen-3-yl)ethyl)oxalamide], with 6.30 to 7.00.
